Assay results published in patent publication US20230251277A1, “METHOD FOR DETERMINING THE LEVEL OF VITAMIN D AND METABOLITES THEREOF” (Roche Diagnostics Operations, Inc., priority 2020, published 2023).
≈ marks a conversion by molar mass, not a printed value. Entries after “also recorded” stand apart in the source; their conditions may differ.

Experiments:
[1] = physchem; settings: aqueous with cosolvent or surfactant or cyclodextrin
[2] = target: T1, Vitamin D binding protein (Homo sapiens, UniProt P02774); test: Screening of releasing reagent candidates: recovery of Vitamin D metabolites from spiked native serum pool (immunobead capture, LC-MS/MS); assay type: biochemical; parameters: native serum pool and homogenized; from tissue; host or cells: native serum pool (spiked with vitamin D metabolites); settings: 45 µl pretreatment reagent at the concentration of the 1st table
T1 sequence (P02774 17-474): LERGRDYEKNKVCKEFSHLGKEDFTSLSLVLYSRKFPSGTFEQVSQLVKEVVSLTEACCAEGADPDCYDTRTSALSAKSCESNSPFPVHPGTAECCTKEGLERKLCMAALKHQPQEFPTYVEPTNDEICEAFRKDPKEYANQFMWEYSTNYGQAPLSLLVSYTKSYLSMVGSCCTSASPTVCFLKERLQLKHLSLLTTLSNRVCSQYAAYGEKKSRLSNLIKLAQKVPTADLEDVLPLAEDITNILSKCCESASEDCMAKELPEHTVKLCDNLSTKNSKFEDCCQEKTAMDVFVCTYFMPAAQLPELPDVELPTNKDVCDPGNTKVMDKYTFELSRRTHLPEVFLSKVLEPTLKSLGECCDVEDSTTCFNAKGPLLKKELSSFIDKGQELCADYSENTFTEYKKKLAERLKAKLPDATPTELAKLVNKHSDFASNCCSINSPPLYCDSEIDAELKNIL
Procedure: 0.30 ml di-OH Vitamin D stock solution ([…] 24R,25-di-OH Vitamin D3 and […] 24R,25-di-OH Vitamin D2 in methanol) and 0.55 ml mono-OH Vitamin D stock solution (10.00 µg/ml 25-OH Vitamin D3 and 10.00 µg/ml 25-OH Vitamin D2 in methanol) are added to 99.1 5 ml native serum pool and homogenized. Thus resulting concentrations in the spiked pool are: • 3.9 ng/ml 24R,25-di-OH Vitamin D3 • 6.0 ng/ml 24R,25-di-OH Vitamin D2 • 55.0 ng/ml 25-OH Vitamin D2 • 84.9 ng/ml 25-OH Vitamin D3 Endogenous amounts in the original native serum pool are taken into account.
Molar concentrations of the evaluated chemicals are:
10 µl Vitamin D free serum (representing ISTD dummy) are pipetted to 145 µl sample in a plastic vessel. After incubation with periodic shaking for 231 s at 37° C., 45 µl pretreatment reagent are added. Again, an incubation with periodic shaking for 640 s at 37° C. takes place. Therefore Vitamin D should be or is gently released from Vitamin D binding protein. In the next step 50 µl immunobead suspension are pipetted to the mixture. Again, an incubation with periodic shaking for 393 s at 37℃ takes place. After twofold bead wash using 0.01 M PBS and magnetic separation, 60 µl of the elution reagent water/methanol 2/8 (v/v) are added and a 40 s incubation period takes place. It is possible to transfer 40 µl supernatant in a HPLC glass vial while 20 µl have to remain in the vessel to avoid the carry-over of beads into the supernatant. In the final step 40 µl internal standard working solution are added to the supernatant and homogenized by means of sip and spit pipetting technique.
HPLC-MS/MS analysis is performed using a 1290 infinity Multisampler and a 1290 Inifinity LC System (Agilent Technologies, Santa Clara/USA) coupled to a Triple Quad 6500+ MS (Sciex, Darmstadt).
40 µl of each sample are injected on the analytical C18 column (50×2.1 mm, 2.6 µm, Hitachi, Tokio/Japan) in order to separate the analytes. This is realized with a flow rate of 1.0 ml/min and at a column temperature of 50° C. Separation of the analytes is achieved with the following gradient of 50 mM formic acid (A) and methanol (B): • 0.00 min: 80% […] • 0.70 min: 90% B • 0.75 min: 98% B • 1.70 min: 98% B • 1.80 min: 80% B • 2.40 min: 80% B
The coupled MS detector is operating in positive electrospray ionisation (ESI) mode. The Vitamin D analytes are detected using multi reaction monitoring (MRM) technique. Doing this two periods are applied: 0.00-0.60 min for measurement of 24R,25-di-OH Vitamin D2/D3 and 0.60-2.40 min for the detection of 25-OH Vitamin
Calibration is performed by means of LC-MS/MS of Vitamin D standards in solvent (60% MeOH) containing internal standards as concentrated as in the processed samples. For example, calibration levels for 25-OH Vitamin D3 are 2, 5, 10, 25, 50 and 100 ng/ml, while the concentration of 25-OH Vitamin D3 13C5 is set to 30 ng/ml.
Due to the fact that internal standard concentrations are identical both in calibrators and processed samples, it is possible to calculate recoveries for each analyte with the formula: […]
The results are shown in FIGS. 2 to 5 show the recovery of the releasing reagent candidates for 25-OH Vitamin D3 (FIG. 2), 25-OH Vitamin D2 (FIG. 3), 24R25-di-OH Vitamin D3 (FIG. 4) and 24R25-di-OH Vitamin D2 (FIG. 5).
Each error bar in FIGS. 2 and 5 is constructed using the min and the max. of the data.

[3] = Dynamic viscosity of the releasing reagent solution; assay type: physicochemical
[4] = target: T1, Vitamin D binding protein; test: Pretreatment optimization (design of experiments): 25-OH Vitamin D3 area ratio / analyte recovery in serum, plasma, Vitamin D free serum

Compound	solubility [1]	recovery of Vitamin D metabolites (25-OH D3, 25-OH D2, 24R,25-di-OH D3, 24R,25-di-OH D2) ([2]; FIGS. 2 to 5)	also measured
O=C(O)c1cccc(O)c1 [PT5, 3-Hydroxybenzoic acid]	50 mM (≈ 6910 µg/mL)	Highest recoveries	–
Cc1cccc(C(=O)[O-])c1O.[Na+] [PT21, 3-Methyl Salicylic acid Sodium salt]	–	–	dynamic viscosity ([3]; at 6° C., 2.3 M dissolved in 35/65 MeOH/0.01 M PBS (v/v)): 8.3 mPa·s; recovery of Vitamin D metabolites (25-OH D3, 25-OH D2, 24R,25-di-OH D3, 24R,25-di-OH D2) ([2]; FIGS. 2 to 5, Sodium salt): Highest recoveries; also recorded: highest analyte recovery; recovery of Vitamin D metabolites (25-OH D3, 25-OH D2, 24R,25-di-OH D3, 24R,25-di-OH D2) ([2]; FIGS. 2 to 5, listed as 3-methylsalicylic acid sodium salt, Sodium salt): highest analyte recovery; Vitamin D release in a patient serum sample ([4]; 450 mM formic acid/0.7 M versus 0 mM formic acid/2.3 M): comparable Vitamin D release; analyte recovery compared with 5.6 M Salicylic acid sodium salt (PT1) ([4]; optimized pretreatment: 2.3 M, 35/65 (v/v) methanol/0.01 M PBS, 0% FA, Sodium salt): comparable to the recovery with salicylic acid sodium salt
O=C(O)c1cc(-c2ccc(F)cc2F)ccc1O [PT18, Diflunisal, reference compound]	0.4 mM (≈ 100 µg/mL)	–	–
Cc1ccc(O)c(C(=O)O)c1 [PT13, 2-Hydroxy-5-methylbenzoic acid]	10 mM (≈ 1520 µg/mL)	–	–
O=C(OCCO)c1ccccc1O [PT3, Ethylen glycol monosalicylate]	50 mM (≈ 9110 µg/mL)	–	–
O=C(O)c1cc(/N=N/c2ccc(S(=O)(=O)Nc3ccccn3)cc2)ccc1O [PT11, Sulfasalazine, reference compound]	9 mM (≈ 3590 µg/mL)	–	–
COC(=O)c1ccc(O)cc1 [PT14, Methyl-4-hydroxybenzoate]	–	Lowest recoveries	–
O=C(O)c1ccccc1O [PT12, Salicylic acid, reference compound]	30 mM (≈ 4140 µg/mL)	–	–
O=C(O)c1ccc(O)c(C(=O)O)c1 [PT4, 4-Hydroxyisophthalic acid]	1 mM (≈ 182 µg/mL)	–	–
O=C([O-])c1ccccc1O.[Na+] [PT1, Sodium Salicylate, reference compound]	5600 mM	Highest recoveries	dynamic viscosity ([3]; at 6° C. for 5.6 M solution in 0.01 M PBS/methanol 9/1): 23 mPas; dynamic viscosity ([3]; at 6° C., (pre)treatment containing 5.6 M (PT1)): 23 mPa·s
O=C(Oc1ccccc1)c1ccccc1O [PT17, Phenyl Salicylate]	0.9 mM (≈ 193 µg/mL)	–	–
Cc1cccc(C(=O)O)c1O [PT15, 3-Methylsalicylic acid]	10 mM (≈ 1520 µg/mL)	–	–
CCOC(=O)c1cc(OCC)ccc1O [PT19, Ethyl-5-ethoxy-2-hydroxybenzoate]	4 mM (≈ 841 µg/mL)	–	–
O=C([O-])c1cccc(O)c1.[Na+] [PT20, 3-Hydroxybenzoic acid sodium salt]	2800 mM	Highest recoveries	–
N.O=C(O)c1ccccc1O [PT2, Ammonium Salicylate]	5600 mM	Highest recoveries	–
CC(=O)Oc1ccccc1C(=O)O [PT10, Aspirin, reference compound]	10 mM (≈ 1800 µg/mL)	–	–
COC(=O)c1ccccc1O [PT16, Methyl Salicylate, reference compound]	10 mM (≈ 1520 µg/mL)	–	–
O=C(O)c1ccc(C(F)(F)F)cc1O [PT22, 2-Hydroxy-4-trifluoromethylbenzoic acid]	6 mM (≈ 1240 µg/mL)	–	–
O=C(O)c1ccc(O)cc1O [PT7, 2,4-Dihydroxybenzoic acid]	50 mM (≈ 7710 µg/mL)	Highest recoveries	–
Cc1ccc(C(=O)O)c(O)c1 [PT6, 4-Methylsalicylic acid]	20 mM (≈ 3040 µg/mL)	–	–
COC(=O)c1ccc(O)cc1.[Na] [PT8, Methylparaben Sodium]	–	Lowest recoveries	–
COc1ccccc1C(=O)O [PT9, 2-Methoxy-benzoic acid]	30 mM (≈ 4560 µg/mL)	–	–
